The text below walks through data of US20260317304A1, “TEAD INHIBITORS AND METHODS OF USE” (Sporos BioDiscovery, Inc., priority 2022, published 2026).

The target of assay [1] is TEAD1 (Homo sapiens, UniProt P28347). As to the kind of experiment: TEAD thermal shift assay (TSA). The assay is classed as binding. The text has this:
(§1) Thermal shift assay (TSA) is a biophysical method to evaluate stability of proteins with change in temperature. The assay measures thermal denaturation temperature in varying conditions such as different drug concentration. For this example, fluorogenic dye was used that bind to unfolded proteins. SYPRO Orange binds non-specifically to hydrophobic surfaces, and water strongly quenches its fluorescence. When the protein unfolds, the exposed hydrophobic surfaces bind the dye, resulting in an increase in fluorescence by excluding water. Detergent micelles also bind the dye and increase background noise dramatically. Binding of small molecules to proteins leads to a stabilization against to thermal denaturation with the degree of thermal stabilization proportional to the strength of binding.
(§2) The study described in this example investigated the change in melting temperature (ΔTm) of TEAD isoforms 1-4 when treated with TEAD inhibitors.
(§3) Tris-HCL was dissolved in 5 mL of Cell culture grade water and allowed to dissolve completely. The pH was adjusted to 8 using NaOH. Additional assay buffer components were added in the order listed above. The buffer was mixed slowly.
(§4) Assay buffer was prepared according to the procedures outlined above and dispensed into test wells. Spyro orange was added to a concentration of 5× in the assay buffer, followed by test compound stock solution which was added to a concentration of 10 μM or 30 μM in the assay buffer.
(§5) The melt cycle was performed in Bio-RAD PCR instrument from 20-95° C. with ramp rate of 1° C./min.

The target in assay [2] is TEAD3 (Homo sapiens, UniProt Q99594). The assay can be described thus: TEAD thermal shift assay (TSA). It is filed as binding.
Chain of TEAD3 (Q99594 whole entry): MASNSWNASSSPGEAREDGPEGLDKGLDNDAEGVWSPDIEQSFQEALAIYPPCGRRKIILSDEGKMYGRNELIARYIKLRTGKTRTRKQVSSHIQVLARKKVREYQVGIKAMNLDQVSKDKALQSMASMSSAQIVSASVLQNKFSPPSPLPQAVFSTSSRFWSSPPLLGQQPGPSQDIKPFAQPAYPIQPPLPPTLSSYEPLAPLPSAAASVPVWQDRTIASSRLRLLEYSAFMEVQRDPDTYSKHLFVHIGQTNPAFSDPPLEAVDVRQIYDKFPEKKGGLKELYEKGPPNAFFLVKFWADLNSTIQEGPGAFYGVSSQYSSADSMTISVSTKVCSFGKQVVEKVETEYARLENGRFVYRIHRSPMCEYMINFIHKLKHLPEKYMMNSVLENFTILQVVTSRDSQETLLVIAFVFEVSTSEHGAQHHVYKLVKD
Text: as §1, §2, §3, §4, §5

In assay [3] the target is TEAD2 (Homo sapiens, UniProt Q15562). The assay can be described thus: TEAD thermal shift assay (TSA). It is filed as binding.
Chain of TEAD2 (Q15562 whole entry): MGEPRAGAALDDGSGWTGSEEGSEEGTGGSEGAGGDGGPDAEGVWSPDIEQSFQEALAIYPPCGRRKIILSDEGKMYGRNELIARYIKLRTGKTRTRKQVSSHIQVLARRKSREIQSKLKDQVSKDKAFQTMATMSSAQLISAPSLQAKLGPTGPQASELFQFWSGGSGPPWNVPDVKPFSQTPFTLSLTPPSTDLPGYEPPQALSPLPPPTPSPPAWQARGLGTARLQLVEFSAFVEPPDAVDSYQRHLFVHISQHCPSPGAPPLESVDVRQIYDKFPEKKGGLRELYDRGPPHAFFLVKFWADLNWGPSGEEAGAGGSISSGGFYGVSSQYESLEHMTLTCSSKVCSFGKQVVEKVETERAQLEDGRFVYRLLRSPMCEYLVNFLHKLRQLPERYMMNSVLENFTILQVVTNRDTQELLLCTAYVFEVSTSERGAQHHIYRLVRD
Text: as §1, §2, §3, §4, §5

Assay [4] concerns the target TEAD4 (Homo sapiens, UniProt Q15561). As to the kind of experiment: TEAD thermal shift assay (TSA). The assay is classed as binding.
Text: as §1, §2, §3, §4, §5

The subject of assay [5] is MSTO-211H xenograft. The assay can be described thus: Mouse xenograft MSTO-211H tumors, study part 2. It is filed as in vivo, BALB/c nude mice. To be noted: PO. The text has this: This study evaluated the in vivo anti-tumor efficacy of test compounds in BALB/c nude mice for treatment of MSTO-211H xenograft of lung cancer.
• Species: Mus Musculus • Strain: BALB/c nude • Age: 6-8 weeks • Sex: female • Body weight: 18-22 g • Number of animals inoculated with tumor: 80 mice • Number of animals enrolled in the treatment: 36 mice • Number of unenrolled animals: 44 mice • Animal supplier: Beijing Vital River Biotechnology Experimental Animal Co. Ltd Certification number: 20170011010591
The MSTO-211H tumor cells were maintained in RPMI 1640 medium supplemented with 10% Fetal bovine serum and 1% Antibiotic-Antimycotic at 37° C. in an atmosphere of 5% CO2 in air. The tumor cells were routinely subcultured twice weekly by trypsin-EDTA. The cells growing in an exponential growth phase with 95% cell survival or above were harvested, and counted for tumor inoculation.
Each mouse was inoculated subcutaneously at the right flank with MSTO-211H tumor cells (5×10^6+50% matrigel/0.2 mL) for tumor development. Animals were marked with earrings with unique 6 significant figure number for identification. The treatments of part 1 were started on day 5 after cell inoculation when the average tumor volume reached 181 mm^3. The treatments of part 2 were started on day 16 after cell inoculation when the average tumor volume reached 254 mm^3. The treatments of part 3 were started on day 33 after cell inoculation when the average tumor volume reached 969 mm^3.
The major endpoint was to determine if the tumor growth could be delayed. Tumor volume was measured twice a week in two dimensions using a caliper, and the volume was expressed in mm^3 using the formula: V=0.5 a×b^2 where a and b are the long and short diameters of the tumor, respectively. The tumor size was then used for calculations of T/C value. The TGI value (in percent) or the T/C value (in percent) is an indication of antitumor effectiveness; T and C are the mean tumor volumes or tumor weights of the treated and control groups, respectively, on a given day.
TGI was calculated for each group using the formula: TGI (%)=[1−(Ti−T0)/(Vi−V0)]×100; Ti is the average tumor volume of a treatment group on a given day, T0 is the average tumor volume of the treatment group on the day of treatment start, Vi is the average tumor volume of the vehicle control group on the same day with Ti, and V0 is the average tumor volume of the vehicle group on the day of treatment start.
Relative T/C (%)=TRTV/CRTV×100 (RTV (%)=Vt/V0×100, Vt is the average tumor volume on a given day, V0 is the average tumor volume on the first day of treatment. TRTV is the RTV of a treatment group, and the CRTV is the RTV of the vehicle control group.)
The antitumor effectiveness of part 2 study was analyzed on PG-D30 when vehicle group reached 738 mm^3.
Summary statistics, including mean and the standard error of the mean (SEM), were provided for the tumor volume of each group at each time point.
Statistical analysis of difference in tumor volume among the groups was conducted on the data obtained at the end of the study.
One-tailed T test was performed to compare tumor volumes between two groups. All data are analyzed using GraphPad Prism 6.0. p<0.05 is considered to be statistically significant.

[6] abbreviates: Ratio of Protein to Compound 1:1.
[7] abbreviates: Ratio of Protein to Compound 1:3.
Where [8] appears, read: part 2, day 30, 12.5 mg/kg, BID.

Chain of TEAD1 (P28347 whole entry): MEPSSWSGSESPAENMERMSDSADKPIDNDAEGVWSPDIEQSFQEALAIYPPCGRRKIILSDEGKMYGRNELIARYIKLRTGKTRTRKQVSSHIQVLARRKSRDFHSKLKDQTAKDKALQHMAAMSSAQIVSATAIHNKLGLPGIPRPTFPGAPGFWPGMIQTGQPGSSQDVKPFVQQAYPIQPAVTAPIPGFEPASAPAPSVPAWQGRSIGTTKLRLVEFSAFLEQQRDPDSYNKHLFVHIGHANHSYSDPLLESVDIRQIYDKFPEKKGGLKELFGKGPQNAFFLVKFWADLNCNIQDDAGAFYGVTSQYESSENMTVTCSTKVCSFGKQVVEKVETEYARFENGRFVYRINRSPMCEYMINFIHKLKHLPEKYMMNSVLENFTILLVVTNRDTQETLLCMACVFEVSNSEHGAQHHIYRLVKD
Chain of TEAD4 (Q15561 whole entry): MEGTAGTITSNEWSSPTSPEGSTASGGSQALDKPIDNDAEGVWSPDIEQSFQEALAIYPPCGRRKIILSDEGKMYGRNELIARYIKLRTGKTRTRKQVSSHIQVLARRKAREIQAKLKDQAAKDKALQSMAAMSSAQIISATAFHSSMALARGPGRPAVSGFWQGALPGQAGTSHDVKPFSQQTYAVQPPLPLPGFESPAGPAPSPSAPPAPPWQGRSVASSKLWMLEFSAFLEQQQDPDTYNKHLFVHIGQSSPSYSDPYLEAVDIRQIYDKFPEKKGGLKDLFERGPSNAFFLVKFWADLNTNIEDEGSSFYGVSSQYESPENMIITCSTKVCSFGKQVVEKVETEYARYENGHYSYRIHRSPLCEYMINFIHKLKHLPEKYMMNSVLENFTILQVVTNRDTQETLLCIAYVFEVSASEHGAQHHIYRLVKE

Turning to `Cn1cnc(-c2cc([C@@]3(C)CCNC3=O)ccc2Nc2ccc(C(F)(F)F)cc2)c1` (single isomer, unassigned) [Compound 5, 3-methyl-3-(3-(1-methyl-1H-imidazol-4-yl)-4-((4-(trifluoromethyl)phenyl)amino)phenyl)pyrrolidin-2-one], the “TEAD1 ΔTm” value in assay [1] (setting [6]) came to 7 °C; in assay [1] (setting [7]), 10 °C. Moreover, the “TEAD3 ΔTm” value in assay [2] (setting [6]) and in assay [2] (setting [7]) was 0 °C throughout. The “TEAD2 ΔTm” value in assay [3] (setting [6]) was determined as 8.5 °C; in assay [3] (setting [7]) it was 11.5 °C. In addition, the “TEAD4 ΔTm” value in assay [4] (setting [6]) worked out at 1.5 °C; in assay [4] (setting [7]), 7 °C.

Usually T/C stands for the ratio of treated to control. With `Cn1nnc(-c2cc([C@]3(C)CCNC3=O)ccc2Nc2ccc(C(F)(F)F)cc2)n1` (stereo in doubt) [Compound 20, 3-methyl-3-(3-(2-methyl-2H-tetrazol-5-yl)-4-((4-(trifluoromethyl)phenyl)amino)phenyl) pyrrolidin-2-one], the Tumor size in assay [5] (part 2, day 0, 12.5 mg/kg, BID) amounted to 254 ± 30 mm^3; in assay [5] (part 2, day 2, 12.5 mg/kg, BID), 249 ± 37 mm^3; in assay [5] (part 2, day 6, 12.5 mg/kg, BID), 160 ± 39 mm^3; in assay [5] (part 2, day 9, 12.5 mg/kg, BID), 116 ± 36 mm^3; in assay [5] (part 2, day 12, 12.5 mg/kg, BID) it was 80 ± 13 mm^3; in assay [5] (part 2, day 16, 12.5 mg/kg, BID) it was 75 ± 10 mm^3. In addition, the Tumor size was 78 ± 14 mm^3 in assay [5] (part 2, day 20, 12.5 mg/kg, BID); 91 ± 10 mm^3 in assay [5] (part 2, day 23, 12.5 mg/kg, BID); 96 ± 6 mm^3 in assay [5] (part 2, day 27, 12.5 mg/kg, BID); 164 ± 15 mm^3 in assay [5] (setting [8]). In addition, in assay [5] (setting [8]), the T/C amounted to 22.24%. The TGI in assay [5] (setting [8]) is 118.44%. Also, in assay [5] (part 2, day 30, 12.5 mg/kg, BID (Table 17)), the “Tumor Volume” value is 164 ± 15 mm^3.
